This is an account of results in paper PMC6433934, “Preclinical Evaluation of Bispecific Adaptor Molecule Controlled Folate Receptor CAR-T Cell Therapy With Special Focus on Pediatric Malignancies” (Frontiers in Oncology, 2019).

Each structure is given as a SMILES string.

In series [1] the test system is MDA-MB-231 tumors. Nature of the series: Effect of dietary folate on CRS and antitumor activity. The series is classed as in vivo, NSG mice. How it is done: (§1) All animal care and use were performed according to NIH guidelines and in compliance with protocols approved by the Purdue University Animal Use and Care Committee. Female 4 to 5-weeks-old NOD/SCID gamma (NSG™) mice (stock number: 005557) were purchased from The Jackson Laboratory (Bar Harbor, ME). Unless specifically indicated, all animals were maintained on a FA-deficient diet (TestDiet, St. Louis, MO) upon arrival and throughout the study. To establish subcutaneous xenografts, MDA-MB-231 and HOS-FRα were implanted in the right flank region at 2.5 × 10^6 and 1 × 10^6 cells per animal, respectively. For intravenous xenografts, THP1-FRβ cells were inoculated at 5 × 10^6 cells per animal. Subcutaneous tumors were measured 2–3 times per week with a caliper and calculated using the ellipsoidal formula (length x width^2)/2. […] All animal doses (CAR-T cells, EC17, sodium fluorescein) were given intravenously.
For MDA-MB-231 studies, mice received a high dose (~10 million) of a “clinical facsimile” of E2-CAR-T cells (~39% EGFRt+) with a low differentiation profile. Two days later, we started them with 3 different treatment regimens of EC17 at an average tumor size of ~293 ± 39 mm^3. The EC17 dosing was given once-a-week (SIW) at 500 nmol/kg on Mondays, or as escalating doses of 5, 50, or 100, and 500 or 1,000 nmol/kg on Monday, Thursday, and Monday with a 6 day break in-between cycles. Control mice were left untreated (received CAR-T cells but no EC17). For comparison, a cohort of tumor-free littermates also received the same number of CAR-T cells without or with EC17 SIW at 500 nmol/kg. To study the effect of high dietary folate, two sets of NSG mice were placed on either a FA-replete diet (4 mg/kg, Envigo, Indianapolis, IN) or a FA-deficient diet (TestDiet, St. Louis, MO) upon arrival. On day 0, both sets of the mice received ~10 million of the same “clinical facsimile” CAR-T cells followed by no EC17 or EC17 SIW at 500 nmol/kg starting on day 3. On the first day of EC17 administration, MDA-MB-231 tumors size averaged around ~549 ± 184 mm^3 (280–918 mm^3) in FA-replete mice, and ~559 ± 165 mm^3 (356–961 mm^3) in FA-deficient mice.
(§2) Depending on the CAR-T cell dose and how EC17 is administered, tumor-bearing mice receiving FITC-specific CAR-T cells can experience severe CRS and varying degrees of body weight loss ([27], [33], [34]). Therefore, we developed a CRS grading system (0–5 scale) to empirically assess CRS toxicity from animals' gross morphology and social behavior to allow for better timing of CRS rescue. While grades 0 and 5 indicated normal (no CRS) or death (due to severe CRS), respectively, grades 1, 2, and 3–4 were considered mild, light-to-moderate, and severe CRS. In addition, all EC17 doses were intentionally given toward the end of any given day to allow potential CRS symptoms to develop overnight. On the days immediately following each EC17 dose, animals were scored and rescue agents such as sodium fluorescein, folic acid and leucovorin were used to mitigate CRS toxicity ([33]). In this particular instance, a batch of E2-CAR-T cells with a high EGFRt+ CD4/CD8 ratio (~93:7) was given to HOS-FRα tumor-bearing mice at a mixture of ~2.5 million CD8 and ~33 million CD4 on day 0. When EC17 was dosed, respectively, at 500, 100, and 500 nmol/kg on days 3, 10, and 12, low CRS (grades 1–2) was noted on days 4 and 11 but high CRS (grade 3) was noted on day 13. To mitigate the severe CRS toxicity, sodium fluorescein was intravenously administrated at ~96 mg/kg in the morning of day 13 and mouse plasma samples were collected 6 h later for analysis of CRS-associated cytokines.

In series [2] the test system is HOS-FRα tumors. Nature of the series: Osteosarcoma study, subcutaneous xenografts, EC17 dose escalation. The series is classed as in vivo. As for the experimental part:
as §1
For osteosarcoma study, two cohorts of mice were subcutaneously implanted with HOS-FRα tumor cells 3 days prior to receiving ~6 million of the same CAR-T cell preparation used in the THP1-FRβ study. At ~3.5 days post CAR-T cell infusion, one cohort of mice was given up to 3 cycles of EC17 at 5/10/100 nmol/kg in Cycle 1, 5/30/300 nmol/kg in Cycle 2, and 5/50/500 nmol/kg in Cycle 3, all following the Monday/Thursday/Monday regimen with a 6 day break in-between cycles. At the end of study, circulating CD3ε+ EGFRt+ CAR-T cells per 100 μL of mouse blood were enumerated. HOS-FRα tumors (+/- EC17 treatment) were also harvested and digested for flow cytometric analysis of tumor-infiltrating CAR-T cells.
as §2, with “When EC17 was dosed, respectively, at 500, 100, and 500 nmol/kg on days 3, 10, and 12, low CRS (grades 1–2) was noted on days 4 and 11 but high CRS (grade 3) was noted on day 13. To mitigate the severe CRS toxicity, sodium fluorescein was intravenously administrated at ~96 mg/kg in the morning of day 13 and mouse plasma samples were collected 6 h later for analysis of CRS-associated cytokines.” left out

[3] abbreviates: FA-deficient diet, ~10 million E2-CAR-T cells, subsequent EC17 doses SIW 500 nmol/kg.
Where [4] appears, read: FA-replete diet, EC17 SIW 500 nmol/kg, ~10 million E2-CAR-T cells, n = 5.

Take `Nc1nc2ncc(CNc3ccc(C(=O)NC(CCC(=O)NCCNC(=S)Nc4ccc(-c5c6ccc(=O)cc-6oc6cc(O)ccc56)c(C(=O)O)c4)C(=O)O)cc3)nc2c(=O)[nH]1` (stereo not shown) [EC17, FA-(γ)-ethylenediamine-FITC]: the cures in series [1] (FA-deficient diet, EC17 SIW 500 nmol/kg, ~10 million E2-CAR-T cells, n = 5) is 5/5. Besides, in series [1] (FA-deficient diet, day 52, EC17 SIW 500 nmol/kg), the “CD3ε+ EGFRt+ CAR-T cells in blood” value is recorded as 1.6–20.4 × 10^4 per 100 μL blood. In series [1] (setting [3]), the CRS grade is 2–3 and the body weight loss is ≤ 11.4%. In series [1] (setting [4]), the complete responses was 2/5, the cures is given as 2/5 and the partial response is on record as 1/5. Besides, the “CD3ε+ EGFRt+ CAR-T cells in blood” value in series [1] (FA-replete diet, day 59, EC17 SIW 500 nmol/kg) is on record as 0.027–4.3 × 10^3 per 100 μL blood. The CRS symptoms result in series [1] (FA-replete diet, ~10 million E2-CAR-T cells, EC17 SIW 500 nmol/kg) is “did not show symptoms of CRS”. The “safety (CRS, body weight)” value in series [2] (EC17 M/Th/M escalation 5/10/100, 5/30/300, 5/50/500 nmol/kg, ~6 million E2-CAR-T cells) is “no CRS or body weight loss”. Moreover, in series [2] (EC17 M/Th/M escalation, within the first two cycles, ~6 million E2-CAR-T cells), the tumor growth result is listed as “significant delay in tumor growth”. The cures result in series [2] (HOS-FRα xenografts, EC17 plus E2-CAR-T cells) is listed as “no cures”. Further, the “intratumoral CD3ε+ EGFRt+ CAR-T cell population” value in series [2] (day 33, EC17-treated animals) was ~ 1 % total viable digested tumor-derived cells.
